Measured values published in ChEMBL document CHEMBL4014279, “Synthesis of novel pyrazolo[3,4-b]quinolinyl acetamide analogs, their evaluation for antimicrobial and anticancer activities, validation by molecular modeling and CoMFA analysis” (Eur J Med Chem, 2017).
In brackets after ≈: the same amount, converted by molar mass. Activity calls are given as the source filed them. The rule behind the calls is not given here.

Assays:
Raoultella planticola = test: Antibacterial activity against Klebsiella planticola MTCC 530 after 24 hrs by well diffusion method; format: functional; details: MTCC 530, 24 h
Staphylococcus aureus [1] = test: Antibacterial activity against Staphylococcus aureus MTCC 96 after 24 hrs by well diffusion method; format: functional; details: MTCC 96, 24 h
A549 [2] = test: Cytotoxicity against human A549 cells at >100 uM after 24 hrs by MTT assay; format: functional, cell-based
HepG2 [3] = test: Cytotoxicity against human HepG2 cells at >100 uM after 24 hrs by MTT assay; format: functional, cell-based
Pseudomonas aeruginosa = test: Antibacterial activity against Pseudomonas aeruginosa MTCC 2453 after 24 hrs by well diffusion method; format: functional; details: MTCC 2453, 24 h
COLO 205 [4] = test: Cytotoxicity against human COLO205 cells at >100 uM after 24 hrs by MTT assay; format: functional, cell-based
Bacillus subtilis = test: Antibacterial activity against Bacillus subtilis MTCC 121 after 24 hrs by well diffusion method; format: functional; details: MTCC 121, 24 h
Micrococcus luteus = test: Antibacterial activity against Micrococcus luteus MTCC 2470 after 24 hrs by well diffusion method; format: functional; details: MTCC 2470, 24 h
Escherichia coli = test: Antibacterial activity against Escherichia coli MTCC 739 after 24 hrs by well diffusion method; format: functional; details: MTCC 739, 24 h
HeLa [5] = test: Cytotoxicity against human HeLa cells at >100 uM after 24 hrs by MTT assay; format: functional, cell-based
Staphylococcus aureus [6] = test: Antibacterial activity against Staphylococcus aureus MLS16 MTCC 2940 after 24 hrs by well diffusion method; format: functional; details: MLS16 MTCC 2940, 24 h
COLO 205 [7] = test: Cytotoxicity against human COLO205 cells after 24 hrs by MTT assay; format: functional, cell-based; details: COLO 205, 24 h
HeLa [8] = test: Cytotoxicity against human HeLa cells after 24 hrs by MTT assay; format: functional, cell-based
A549 [9] = test: Cytotoxicity against human A549 cells after 24 hrs by MTT assay; format: functional, cell-based; details: A549, 24 h
HepG2 [10] = test: Cytotoxicity against human HepG2 cells after 24 hrs by MTT assay; format: functional, cell-based; details: HepG2, 24 h

Compound | MIC (Raoultella planticola) | MIC (Staphylococcus aureus [1]) | Activity (A549 [2]) | Activity (HepG2 [3]) | MIC (Pseudomonas aeruginosa) | Activity (COLO 205 [4]) | MIC (Bacillus subtilis) | MIC (Micrococcus luteus) | MIC (Escherichia coli) | Activity (HeLa [5]) | MIC (Staphylococcus aureus [6]) | IC50 (COLO 205 [7]) | IC50 (HeLa [8]) | IC50 (A549 [9]) | IC50 (HepG2 [10])
COc1ccc(NC(=O)Cn2nc(C(F)(F)F)c3c(C)c4ccccc4nc32)cc1 | 7.8 to 125 µg/mL (≈ 18.8 to 302 µM) | 7.8 to 125 µg/mL (≈ 18.8 to 302 µM) | inactive | inactive | 7.8 to 125 µg/mL (≈ 18.8 to 302 µM) | inactive | 7.8 to 125 µg/mL (≈ 18.8 to 302 µM) | 7.8 to 125 µg/mL (≈ 18.8 to 302 µM) | 7.8 to 125 µg/mL (≈ 18.8 to 302 µM) | inactive | 7.8 to 125 µg/mL (≈ 18.8 to 302 µM) | – | – | – | –
O=c1[nH]cc(F)c(=O)[nH]1 [FLUOROURACIL] | – | – | – | – | – | – | – | – | – | – | – | 1.9 µM | 1.4 µM | 1.2 µM | 1.4 µM
CCNC(=O)Cn1nc(C(F)(F)F)c2c(-c3ccccc3)c3ccccc3nc21 | 7.8 to 125 µg/mL (≈ 19.6 to 314 µM) | 7.8 to 125 µg/mL (≈ 19.6 to 314 µM) | – | – | 7.8 to 125 µg/mL (≈ 19.6 to 314 µM) | – | 7.8 to 125 µg/mL (≈ 19.6 to 314 µM) | 7.8 to 125 µg/mL (≈ 19.6 to 314 µM) | 7.8 to 125 µg/mL (≈ 19.6 to 314 µM) | – | 7.8 to 125 µg/mL (≈ 19.6 to 314 µM) | 18.9 µM | 26.5 µM | 29.5 µM | 22.2 µM
O=C(Cn1nc(C(F)(F)F)c2c(-c3ccccc3)c3ccccc3nc21)N1CCCC1 | 7.8 to 125 µg/mL (≈ 18.4 to 295 µM) | 7.8 to 125 µg/mL (≈ 18.4 to 295 µM) | – | – | 7.8 to 125 µg/mL (≈ 18.4 to 295 µM) | – | 7.8 to 125 µg/mL (≈ 18.4 to 295 µM) | 7.8 to 125 µg/mL (≈ 18.4 to 295 µM) | 7.8 to 125 µg/mL (≈ 18.4 to 295 µM) | – | 7.8 to 125 µg/mL (≈ 18.4 to 295 µM) | 25.8 µM | 29.6 µM | 22.5 µM | 33.3 µM
O=C(Cn1nc(C(F)(F)F)c2c(-c3ccccc3)c3ccccc3nc21)Nc1ccc([N+](=O)[O-])cc1 | 7.8 to 125 µg/mL (≈ 15.9 to 254 µM) | 7.8 to 125 µg/mL (≈ 15.9 to 254 µM) | – | – | 7.8 to 125 µg/mL (≈ 15.9 to 254 µM) | – | 7.8 to 125 µg/mL (≈ 15.9 to 254 µM) | 7.8 to 125 µg/mL (≈ 15.9 to 254 µM) | 7.8 to 125 µg/mL (≈ 15.9 to 254 µM) | – | 7.8 to 125 µg/mL (≈ 15.9 to 254 µM) | 14.3 µM | 15.1 µM | 10.8 µM | 12.2 µM
CCCCCCNC(=O)Cn1nc(C(F)(F)F)c2c(C)c3ccccc3nc21 | 7.8 to 125 µg/mL (≈ 19.9 to 319 µM) | 7.8 to 125 µg/mL (≈ 19.9 to 319 µM) | – | – | 7.8 to 125 µg/mL (≈ 19.9 to 319 µM) | – | 7.8 to 125 µg/mL (≈ 19.9 to 319 µM) | 7.8 to 125 µg/mL (≈ 19.9 to 319 µM) | 7.8 to 125 µg/mL (≈ 19.9 to 319 µM) | – | 7.8 to 125 µg/mL (≈ 19.9 to 319 µM) | 22.2 µM | 21.7 µM | 20.5 µM | 19.6 µM
O=C(Cn1nc(C(F)(F)F)c2c(-c3ccccc3)c3ccccc3nc21)NC1CCCCC1 | 7.8 to 125 µg/mL (≈ 17.2 to 276 µM) | 7.8 to 125 µg/mL (≈ 17.2 to 276 µM) | – | – | 7.8 to 125 µg/mL (≈ 17.2 to 276 µM) | – | 7.8 to 125 µg/mL (≈ 17.2 to 276 µM) | 7.8 to 125 µg/mL (≈ 17.2 to 276 µM) | 7.8 to 125 µg/mL (≈ 17.2 to 276 µM) | – | 7.8 to 125 µg/mL (≈ 17.2 to 276 µM) | 32.1 µM | 29.7 µM | 25.9 µM | 30.2 µM
Cc1c2ccccc2nc2c1c(C(F)(F)F)nn2CC(=O)N1CCOCC1 | 7.8 to 125 µg/mL (≈ 20.6 to 330 µM) | 7.8 to 125 µg/mL (≈ 20.6 to 330 µM) | inactive | inactive | 7.8 to 125 µg/mL (≈ 20.6 to 330 µM) | inactive | 7.8 to 125 µg/mL (≈ 20.6 to 330 µM) | 7.8 to 125 µg/mL (≈ 20.6 to 330 µM) | 7.8 to 125 µg/mL (≈ 20.6 to 330 µM) | inactive | 7.8 to 125 µg/mL (≈ 20.6 to 330 µM) | – | – | – | –
Cc1nn(CC(=O)N2CCCCC2)c2nc3ccccc3c(C)c12 | 7.8 to 125 µg/mL (≈ 24.2 to 388 µM) | 7.8 to 125 µg/mL (≈ 24.2 to 388 µM) | – | – | 7.8 to 125 µg/mL (≈ 24.2 to 388 µM) | – | 7.8 to 125 µg/mL (≈ 24.2 to 388 µM) | 7.8 to 125 µg/mL (≈ 24.2 to 388 µM) | 7.8 to 125 µg/mL (≈ 24.2 to 388 µM) | – | 7.8 to 125 µg/mL (≈ 24.2 to 388 µM) | 11.9 µM | 17 µM | 20.5 µM | 15.5 µM
CNC(=O)Cn1nc(C(F)(F)F)c2c(-c3ccccc3)c3ccccc3nc21 | 7.8 to 125 µg/mL (≈ 20.3 to 325 µM) | 7.8 to 125 µg/mL (≈ 20.3 to 325 µM) | – | – | 7.8 to 125 µg/mL (≈ 20.3 to 325 µM) | – | 7.8 to 125 µg/mL (≈ 20.3 to 325 µM) | 7.8 to 125 µg/mL (≈ 20.3 to 325 µM) | 7.8 to 125 µg/mL (≈ 20.3 to 325 µM) | – | 7.8 to 125 µg/mL (≈ 20.3 to 325 µM) | 19.8 µM | 23.5 µM | 21.4 µM | 22.5 µM
Cc1nn(CC(=O)Nc2ccc([N+](=O)[O-])cc2)c2nc3ccccc3c(C)c12 | 7.8 to 125 µg/mL (≈ 20.8 to 333 µM) | 7.8 to 125 µg/mL (≈ 20.8 to 333 µM) | – | – | 7.8 to 125 µg/mL (≈ 20.8 to 333 µM) | – | 7.8 to 125 µg/mL (≈ 20.8 to 333 µM) | 7.8 to 125 µg/mL (≈ 20.8 to 333 µM) | 7.8 to 125 µg/mL (≈ 20.8 to 333 µM) | – | 7.8 to 125 µg/mL (≈ 20.8 to 333 µM) | 20.1 µM | 18.5 µM | 15.9 µM | 17.2 µM
Cc1c2ccccc2nc2c1c(C(F)(F)F)nn2CC(=O)NCc1ccco1 | 7.8 to 125 µg/mL (≈ 20.1 to 322 µM) | 7.8 to 125 µg/mL (≈ 20.1 to 322 µM) | – | – | 7.8 to 125 µg/mL (≈ 20.1 to 322 µM) | – | 7.8 to 125 µg/mL (≈ 20.1 to 322 µM) | 7.8 to 125 µg/mL (≈ 20.1 to 322 µM) | 7.8 to 125 µg/mL (≈ 20.1 to 322 µM) | – | 7.8 to 125 µg/mL (≈ 20.1 to 322 µM) | 29.8 µM | 32.8 µM | 33.9 µM | 48.2 µM
Cc1c2ccccc2nc2c1c(C(F)(F)F)nn2CC(=O)N1CCN(CCO)CC1 | 7.8 to 125 µg/mL (≈ 18.5 to 297 µM) | 7.8 to 125 µg/mL (≈ 18.5 to 297 µM) | – | – | 7.8 to 125 µg/mL (≈ 18.5 to 297 µM) | – | 7.8 to 125 µg/mL (≈ 18.5 to 297 µM) | 7.8 to 125 µg/mL (≈ 18.5 to 297 µM) | 7.8 to 125 µg/mL (≈ 18.5 to 297 µM) | – | 7.8 to 125 µg/mL (≈ 18.5 to 297 µM) | 19.8 µM | 28.2 µM | 31.1 µM | 30.2 µM
